The term IC50 denotes the concentration that gives 50% inhibition. The inhibition is the drop in the measured response relative to a control, in per cent.

We go through 13 molecules from ChEMBL document CHEMBL4616656, “Diisonitrile-Mediated Reactive Oxygen Species Accumulation Leads to Bacterial Growth Inhibition” (J Nat Prod, 2020).

The subject of assay [1] is Bacillus subtilis subsp. subtilis str. 168. In words: Copper chelating activity in Bacillus subtilis 168 assessed as reduction in cytochrome c oxidase activity by measuring increase in ROS level at 10 uM measured over 40 mins by H2DCFDA staining based fluorescence method relative to control.
The subject of assay [2] is Bacillus subtilis. In words: Antibacterial activity against Bacillus subtilis 168 at 10 uM after 12 hrs relative to control. Type of assay: functional.
The target in a further assay is Mushroom tyrosinase (Agaricus bisporus, UniProt O42713+Q00024+C7FF04+C7FF05). In words: Inhibition of mushroom tyrosinase using L-DOPA as substrate preincubated for 10 mins followed by substrate addition and measured after 15 mins by spectrophotometric method.
The test system of assay [3] is Bacillus subtilis. Put plainly: microbe, parasite or virus in culture. The following applies: subsp. subtilis str. 168, 12 h.
Description: Antibacterial activity against Bacillus subtilis 168 after 12 hrs
The subject of assay [4] is Bacillus subtilis. In words: Antibacterial activity against Bacillus subtilis 168 in presence of Fe3+ by paper disk assay. Type of assay: functional, organism-based. The following applies: subsp. subtilis str. 168.
Assay [5] has as its system Bacillus subtilis subsp. subtilis str. 168. Put plainly: Copper chelating activity in Bacillus subtilis 168 assessed as reduction in cytochrome c oxidase activity by measuring decrease in intracellular ATP level at 10 uM incubated for 15 to 90 mins by bioluminescence method relative to control. It is filed as cell-based. On the set-up: scale not given: the % may be the effect or the level left.

Another assay relates to Escherichia coli. In words: Antibacterial activity against Escherichia coli BL21 at 10 uM after 12 hrs relative to control. Type of assay: functional.
Another assay concerns Pseudomonas aeruginosa. Put plainly: Antibacterial activity against Pseudomonas aeruginosa ATCC 27853 at 10 uM after 12 hrs relative to control. Type of assay: functional.
Assay [6] concerns Bacillus subtilis. In words: Antibacterial activity against Bacillus subtilis 168 assessed as inhibition rate at 100 uM after 12 hrs relative to control. The note with it: subsp. subtilis str. 168, 12 h. Type of assay: functional.
Assay [7] has as its system Bacillus subtilis. Put plainly: Antibacterial activity against Bacillus subtilis 168 in presence of Fe2+ by paper disk assay. Type of assay: functional, organism-based. The note with it: subsp. subtilis str. 168.
The test system of the next assay is Enterococcus faecalis. Put plainly: Antibacterial activity against Enterococcus faecalis ATCC 29212 at 10 uM after 12 hrs relative to control. Type of assay: functional.
Assay [8] relates to Bacillus subtilis subsp. subtilis str. 168. Put plainly: Copper chelating activity in Bacillus subtilis 168 assessed as reduction in cellular copper content at 100 uM incubated for 1 hr by ICP-MS analysis relative to control. The arrangement: scale not given: the % may be the effect or the level left.
The next assay concerns Acinetobacter baumannii. In words: Antibacterial activity against Acinetobacter baumannii ATCC 19606 at 10 uM after 12 hrs relative to control. It is filed as functional, ATCC 19606 = CIP 70.34 = JCM 6841.
The next assay relates to Staphylococcus aureus. In words: Antibacterial activity against Staphylococcus aureus ATCC 43300 at 10 uM after 12 hrs relative to control. Type of assay: functional.
Assay [9] has as its system Bacillus subtilis. Put plainly: Antibacterial activity against Bacillus subtilis 168 in presence of CuCl2 by paper disk assay. It is filed as functional, organism-based. The following applies: subsp. subtilis str. 168.
Assay [10] relates to Acinetobacter baumannii ATCC 19606 = CIP 70.34 = JCM 6841. In words: Copper chelating activity in Acinetobacter baumannii ATCC 19606 assessed as increase in ROS level at 10 uM measured over 40 mins by H2DCFDA staining based fluorescence method.
In the next assay the test system is Klebsiella pneumoniae. In words: Antibacterial activity against Klebsiella pneumoniae CMCC 46117 at 10 uM after 12 hrs relative to control. Type of assay: functional.
[11] abbreviates: Bacillus subtilis subsp. subtilis str. 168.

Structures are written as SMILES. Calls of active or inactive are those of the source. The calls are words filed in the database; no cut-off is given here.

For the molecule `C[C@@H](C#N)CC(=O)NCCCC[C@@H](CO)NC(=O)C[C@@H](C)C#N`, the result (in assay [1]; in the assay with Bacillus subtilis [2] (setting [11])) was Active. The same molecule had an IC50 against Mushroom tyrosinase of 89.6 µM.

With `CC(C)CC(=O)NC[C@@H]1CC[C@H](NC(=O)CC(C)C)C(O)O1` (stereo partly specified), the outcome (in assay [1]; in the assay on Bacillus subtilis [2] (setting [11])) was inactive.

Turning to `C[C@H](CC(=O)N[C@H](CO)CCCCNC(=O)C[C@@H](C)C#N)NC=O`, the result (in assay [1]; in the assay with Bacillus subtilis [2] (setting [11])) was inactive.

In the case of `CC(=O)OC[C@H](CCCCNC(=O)C[C@@H](C)C#N)NC(=O)C[C@@H](C)C#N`, the outcome (in assay [1]; with Bacillus subtilis [2] (setting [11])) was Active. Also, the IC50 at Mushroom tyrosinase came to 89.6 µM.

The molecule `COc1cc(Cc2cnc(N)nc2N)cc(OC)c1OC` [TRIMETHOPRIM] registered a half-maximal inhibitory concentration (IC50) in the assay on Bacillus subtilis [3] of 0.3 µM.

Consider `C[C@H](CC(=O)NCCCC[C@@H](CO)NC(=O)C[C@@H](C)NC=O)NC=O`, for which the result (in assay [1]; with Bacillus subtilis [2] (setting [11])) was inactive.

As for `CC(C#N)CC(=O)NC[C@@H]1CC[C@H](NC(=O)C[C@@H](C)C#N)C(O)O1` (stereo partly specified), the result (in the assay on Bacillus subtilis [4]; in the assay on Bacillus subtilis [7]; in [10]) was Active. The Activity in assay [5] is 20%; with Escherichia coli, 20 - 30%; in the assay on Pseudomonas aeruginosa, 20 - 30%; in the assay on Enterococcus faecalis it was 20 - 30%; in assay [8], 24%; in the assay with Bacillus subtilis [2], 50%. Also, the Activity is reported as 57% in the assay on Acinetobacter baumannii, 20 - 30% in the assay on Staphylococcus aureus and 20 - 30% in the assay on Klebsiella pneumoniae. The fold change (FC) in [1] amounted to 9. In the assay on Bacillus subtilis [6], the inhibition at 100 µM was in the range of 56 to 60%. On Mushroom tyrosinase, this molecule had a half-inhibitory concentration (IC50) of 89.6 µM. The result in the assay on Bacillus subtilis [9] was inactive.

`C[C@H](CC(=O)NC[C@@H]1CC[C@H](NC(=O)C[C@@H](C)NC=O)C(O)O1)NC=O` (stereo partly specified): the outcome (in assay [1]; in the assay on Bacillus subtilis [2] (setting [11])) was inactive.

As for `C[C@H](CC(=O)N[C@H]1CC[C@@H](CNC(=O)C[C@@H](C)C#N)OC1O)NC=O` (stereo partly specified), the outcome (in assay [1]; with Bacillus subtilis [2] (setting [11])) was inactive.

For `CC(=O)OC[C@H](CCCCNC(=O)C[C@@H](C)NC=O)NC(=O)C[C@@H](C)NC=O`, the result (in assay [1]; in the assay with Bacillus subtilis [2] (setting [11])) was inactive.

For the molecule `C[C@H](CC(=O)NCCCC[C@@H](CO)NC(=O)C[C@@H](C)C#N)NC=O`, the result (in assay [1]; in the assay on Bacillus subtilis [2] (setting [11])) was inactive.

Regarding `CC(C)=CCC(=O)NC[C@@H]1CC[C@H](NC(=O)C[C@@H](C)C#N)C(O)O1` (stereo partly specified), the result (in [1]; in the assay with Bacillus subtilis [2] (setting [11])) was inactive.

For the molecule `CC(C)CCC(=O)NC[C@@H]1CC[C@H](NC(=O)C[C@@H](C)C#N)C(O)O1` (stereo partly specified), the outcome (in assay [1]; with Bacillus subtilis [2] (setting [11])) was inactive.
